Test results from patent publication US12497365B2, “4-pyridinyl formamide compound or derivative thereof, preparation method therefor, herbicidal composition and use thereof” (Qingdao Kingagroot Chemical Compound Co., Ltd., priority 2019, dated 2025).

Experiments:
Assay in all cases: Weeding effect in post-emergence stage
Assay type in all cases: in vivo
Details in all cases: active ingredient 2000 g/ha, 3 weeks after application, fresh weight control rate
Abutilon theophrasti = tested on: Abutilon theophrasti
Source text: (§1) The activity level criteria for plant damage (i.e., growth control rate) are as follows:
(§2) The above growth control rates are fresh weight control rates.
(§3) Experiment on weeding effect in post-emergence stage: monocotyledonous and dicotyledonous weed seeds and major crop seeds (wheat, corn, rice, soybean, cotton, oilseed rape, millet, sorghum) were placed in plastic pots filled with soil, then covered with 0.5-2 cm of soil, allowed to grow in a good greenhouse environment. After 2 weeks of sowing, the test plants were treated in the 2-3 leaf stage. The tested compounds of the present invention were respectively dissolved in acetone at the dosage of 2000, 1000, 500, 250, 125 g/ha, then added with Tween 80 and 1.5 liter/ha of emulsifiable concentrate of methyl oleate as synergist, diluted with a certain amount of water to obtain a solution with a certain concentration, and sprayed with a spray tower onto the plants. After the application, the plants were cultured for 3 weeks in the greenhouse, and then the experimental results were listed in Table 1.

[1] = tested on: Amaranthus retroflexus L.
Source text: as §1, §2, §3

Chenopodium album = tested on: Chenopodium album
Source text: as §1, §2, §3

Descurainia sophia = tested on: Descurainia sophia
Source text: as §1, §2, §3

| SMILES | Weeding effect, activity level (growth control rate), Abutilon theophrasti (Abutilon theophrasti) | Weeding effect, activity level (growth control rate), Amaranthus retroflexus L. [1] | Weeding effect, activity level (growth control rate), Chenopodium album (Chenopodium album) | Weeding effect, activity level (growth control rate), Descurainia sophia (Descurainia sophia) |
| --- | --- | --- | --- | --- |
| Cc1nccc(C(=O)Nc2nnnn2C)c1Cl [Compound 1-1] | 5 (Level 5: growth control rate is above 85%) | 5 (Level 5: growth control rate is above 85%) | 5 (Level 5: growth control rate is above 85%) | 5 (Level 5: growth control rate is above 85%) |
| Cn1nnnc1NC(=O)c1ccnc(C(C)(C)C)c1Cl [Compound 1-2] | 5 (Level 5: growth control rate is above 85%) | 5 (Level 5: growth control rate is above 85%) | 5 (Level 5: growth control rate is above 85%) | 5 (Level 5: growth control rate is above 85%) |
| Cn1nnnc1NC(=O)c1ccnc(C2CC2)c1Cl [Compound 1-3] | 5 (Level 5: growth control rate is above 85%) | 5 (Level 5: growth control rate is above 85%) | 5 (Level 5: growth control rate is above 85%) | 5 (Level 5: growth control rate is above 85%) |
| Cn1nnnc1NC(=O)c1ccnc(C2CCCCC2)c1Cl [Compound 1-4] | 5 (Level 5: growth control rate is above 85%) | 5 (Level 5: growth control rate is above 85%) | 5 (Level 5: growth control rate is above 85%) | 5 (Level 5: growth control rate is above 85%) |
| Cn1nnnc1NC(=O)c1ccnc(C2=CCCCC2)c1Cl [Compound 1-5] | 5 (Level 5: growth control rate is above 85%) | 5 (Level 5: growth control rate is above 85%) | 5 (Level 5: growth control rate is above 85%) | 5 (Level 5: growth control rate is above 85%) |
| Cn1nnnc1NC(=O)c1ccnc(C2=CCN(C(=O)OC(C)(C)C)CC2)c1Cl [Compound 1-6] | 5 (Level 5: growth control rate is above 85%) | 5 (Level 5: growth control rate is above 85%) | 5 (Level 5: growth control rate is above 85%) | 5 (Level 5: growth control rate is above 85%) |
| Cn1nnnc1NC(=O)c1ccnc(C2=CCOCC2)c1Cl [Compound 1-7] | 5 (Level 5: growth control rate is above 85%) | 5 (Level 5: growth control rate is above 85%) | 5 (Level 5: growth control rate is above 85%) | 5 (Level 5: growth control rate is above 85%) |
| Cn1nnnc1NC(=O)c1ccnc(-c2ccccc2)c1Cl [Compound 1-8] | 5 (Level 5: growth control rate is above 85%) | 5 (Level 5: growth control rate is above 85%) | 5 (Level 5: growth control rate is above 85%) | 5 (Level 5: growth control rate is above 85%) |
| Cc1ccccc1-c1nccc(C(=O)Nc2nnnn2C)c1Cl [Compound 1-9] | 5 (Level 5: growth control rate is above 85%) | 5 (Level 5: growth control rate is above 85%) | 5 (Level 5: growth control rate is above 85%) | 5 (Level 5: growth control rate is above 85%) |
| Cc1cccc(-c2nccc(C(=O)Nc3nnnn3C)c2Cl)c1 [Compound 1-10] | 5 (Level 5: growth control rate is above 85%) | 5 (Level 5: growth control rate is above 85%) | 5 (Level 5: growth control rate is above 85%) | 5 (Level 5: growth control rate is above 85%) |
| Cc1ccc(-c2nccc(C(=O)Nc3nnnn3C)c2Cl)cc1 [Compound 1-11] | 5 (Level 5: growth control rate is above 85%) | 5 (Level 5: growth control rate is above 85%) | 5 (Level 5: growth control rate is above 85%) | 5 (Level 5: growth control rate is above 85%) |
| CCc1ccccc1-c1nccc(C(=O)Nc2nnnn2C)c1Cl [Compound 1-12] | 5 (Level 5: growth control rate is above 85%) | 5 (Level 5: growth control rate is above 85%) | 5 (Level 5: growth control rate is above 85%) | 5 (Level 5: growth control rate is above 85%) |
| CCCCCc1ccc(-c2nccc(C(=O)Nc3nnnn3C)c2Cl)cc1 [Compound 1-13] | 5 (Level 5: growth control rate is above 85%) | 5 (Level 5: growth control rate is above 85%) | 5 (Level 5: growth control rate is above 85%) | 5 (Level 5: growth control rate is above 85%) |
| CCCC1CCC(c2ccc(-c3nccc(C(=O)Nc4nnnn4C)c3Cl)cc2)CC1 (stereo not drawn) [Compound 1-14] | 5 (Level 5: growth control rate is above 85%) | 5 (Level 5: growth control rate is above 85%) | 5 (Level 5: growth control rate is above 85%) | 5 (Level 5: growth control rate is above 85%) |
| Cn1nnnc1NC(=O)c1ccnc(-c2cccc(F)c2)c1Cl [Compound 1-16] | 5 (Level 5: growth control rate is above 85%) | 5 (Level 5: growth control rate is above 85%) | 5 (Level 5: growth control rate is above 85%) | 5 (Level 5: growth control rate is above 85%) |
| Cn1nnnc1NC(=O)c1ccnc(-c2ccccc2Cl)c1Cl [Compound 1-18] | 5 (Level 5: growth control rate is above 85%) | 5 (Level 5: growth control rate is above 85%) | 5 (Level 5: growth control rate is above 85%) | 5 (Level 5: growth control rate is above 85%) |
| Cn1nnnc1NC(=O)c1ccnc(-c2cccc(Cl)c2)c1Cl [Compound 1-19] | 5 (Level 5: growth control rate is above 85%) | 5 (Level 5: growth control rate is above 85%) | 5 (Level 5: growth control rate is above 85%) | 5 (Level 5: growth control rate is above 85%) |
| Cn1nnnc1NC(=O)c1ccnc(-c2ccc(Cl)cc2)c1Cl [Compound 1-20] | 5 (Level 5: growth control rate is above 85%) | 5 (Level 5: growth control rate is above 85%) | 5 (Level 5: growth control rate is above 85%) | 5 (Level 5: growth control rate is above 85%) |
| Cn1nnnc1NC(=O)c1ccnc(-c2cccc(Br)c2)c1Cl [Compound 1-21] | 5 (Level 5: growth control rate is above 85%) | 5 (Level 5: growth control rate is above 85%) | 5 (Level 5: growth control rate is above 85%) | 5 (Level 5: growth control rate is above 85%) |
| Cn1nnnc1NC(=O)c1ccnc(-c2ccc(Br)cc2)c1Cl [Compound 1-22] | 5 (Level 5: growth control rate is above 85%) | 5 (Level 5: growth control rate is above 85%) | 5 (Level 5: growth control rate is above 85%) | 5 (Level 5: growth control rate is above 85%) |
| Cn1nnnc1NC(=O)c1ccnc(-c2ccccc2CBr)c1Cl [Compound 1-23] | 5 (Level 5: growth control rate is above 85%) | 5 (Level 5: growth control rate is above 85%) | 5 (Level 5: growth control rate is above 85%) | 5 (Level 5: growth control rate is above 85%) |
